According to patent US20040048821A1, “Enhancement of drug cytotoxicity in tumor cells containing mutant Rb gene” (Cold Spring Harbor Laboratory, priority 1997, published 2004):

What was measured:
Assay type in all cases: cell-based, human
[1] = tested on: BT-549 breast carcinoma cells; assay: Drug cytotoxicity (adriamycin) in BT-549 breast carcinoma cells; conditions: BT549 cells containing a control vector
Description: (§1) A control vector, E1A or the E1A mutants (ΔN or ΔCR2) were introduced into tumor cells via retroviral mediated gene transfer and analyzed for drug cytoxicity within a few days of gene transfer. Cell populations were treated with adriamycin or tumor necrosis factor a (or both).

Snos2 osteosarcoma cells = assay: Drug cytotoxicity (adriamycin, TNF) in Snos2 osteosarcoma cells; conditions: Snos2 cells with control vector, doses tested
Description: as §1

U2OS osteosarcoma cells = assay: Drug cytotoxicity (adriamycin, TNF) in U2OS osteosarcoma cells; conditions: U2OS cells with control vector, doses tested
Description: as §1

COc1cccc2c1C(=O)c1c(O)c3c(c(O)c1C2=O)C[C@@](O)(C(=O)CO)C[C@@H]3O[C@H]1C[C@H](N)[C@H](O)[C@H](C)O1 [adriamycin]
apoptosis following drug treatment [1]: unable to induce apoptosis
apoptosis following drug treatment (Snos2 osteosarcoma cells): do not undergo apoptosis
apoptosis / cell death following drug treatment (U2OS osteosarcoma cells): do not undergo apoptosis
